We go through nine compounds from patent US8975277B2, “2,3-dihydrofuro[2,3-c]pyridin-2-ylpiperidine derivatives” (Boehringer Ingelheim International GmbH, priority 2012, dated 2015).

The assay addresses T1, human GPR119 (Homo sapiens, UniProt Q8TDV5).
T1 construct: expression vector for human GPR119 cDNA (Acc. No. NP_848566); expressed in transfected cells
T1 sequence (Q8TDV5 1-335): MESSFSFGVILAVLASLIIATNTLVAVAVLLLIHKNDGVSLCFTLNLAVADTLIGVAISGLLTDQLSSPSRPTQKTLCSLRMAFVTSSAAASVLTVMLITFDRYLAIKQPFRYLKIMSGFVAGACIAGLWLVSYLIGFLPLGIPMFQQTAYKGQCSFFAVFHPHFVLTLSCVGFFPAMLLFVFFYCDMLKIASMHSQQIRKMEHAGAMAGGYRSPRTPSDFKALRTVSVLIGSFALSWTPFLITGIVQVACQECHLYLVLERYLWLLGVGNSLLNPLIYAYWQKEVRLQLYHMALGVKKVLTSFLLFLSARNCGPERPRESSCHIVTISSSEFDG
As to the kind of experiment: AlphaScreen cAMP assay, activation of GPR119 in MIN6 cells stably transfected with human GPR119. To be noted: Min-6/hGPR119 cells, intracellular cAMP, 45 minutes incubation at room temperature. Type of assay: cell-based. The method, then: The compounds of the invention modulate the activity of the G-protein-coupled receptor GPR119. The effect of the compounds on the activation of GPR119 and on the stimulation of intracellular cAMP concentration is determined using the AlphaScreen cAMP Assay Kit (Cat.No.#6760625R) made by Perkin Elmer.
MIN6 cells [Miyazaki J et al., Endocrinology. 1990 July; 127(1):126-32] are stably transfected with an expression vector for human GPR119 cDNA (Acc. No. NP_848566). Min-6/hGPR119 cells are cultured in DMEM, 10% FBS, 50 μM β-mercaptoethanol, 0.3 mg/mL Geniticin, 2 mM GlutaMAX at 37° C., 5% CO2. For the assay, the cells are seeded in Optiplates (white, 384-well, 160W-barcoded, TC, sterile with lid, Cat.No.#6007688 (Perkin Elmer); 10000 cells/well; 50 μL). The plates covered with lids are then incubated for 24 hours at 37° C., 5% CO2. After the medium is aspirated from the wells completely, 10 μl of the test compound are added, the compounds are diluted using stimulating buffer (140 mM NaCl, 3.6 mM KCl, 0.5 mM NaH2PO4, 0.5 mM MgSO4, 1.5 mM CaCl2, 10 mM Hepes, 5 mM NaHCO3; pH 7.4. 0.5 mM IBMX and 0.1% BSA, the final DMSO concentration is 1%). After 45 minutes incubation at room temperature (approx. 20° C.), the cAMP concentrations are determined using the AlphaScreen cAMP Assay Kit (Cat.No.#6760625R from PerkinElmer).
Regarding `C[C@H](OC(=O)N1CCC([C@H]2Cc3cc(-c4ccc(S(C)(=O)=O)cc4)ncc3O2)CC1)C(F)(F)F` [Example 1, (S)-4-[(R)-5-(4-Methanesulfonyl-phenyl)-2,3-dihydro-furo[2,3-c]pyridin-2-yl]-piperidine-1-carboxylic acid 2,2,2-trifluoro-1-methyl-ethyl ester], the EC50 stood at 5 nM.
Under `C[C@@H](OC(=O)N1CCC([C@H]2Cc3cc(-c4ccc(S(C)(=O)=O)cc4)ncc3O2)CC1)C(F)(F)F` [Example 2, (R)-4-[(R)-5-(4-Methanesulfonyl-phenyl)-2,3-dihydro-furo[2,3-c]pyridin-2-yl]-piperidine-1-carboxylic acid 2,2,2-trifluoro-1-methyl-ethyl ester] stands 6 nM; under `C[C@@H](OC(=O)N1CCC([C@H]2Cc3cc(C4=CCN(S(C)(=O)=O)CC4)ncc3O2)CC1)C(F)(F)F` [Example 3, (R)-4-[(R)-5-(1-Methanesulfonyl-1,2,3,6-tetrahydro-pyridin-4-yl)-2,3-dihydro-furo[2,3-c]pyridin-2-yl]-piperidine-1-carboxylic acid 2,2,2-trifluoro-1-methyl-ethyl ester], 6 nM; under `C[C@H](OC(=O)N1CCC([C@H]2Cc3cc(C4=CCN(S(C)(=O)=O)CC4)ncc3O2)CC1)C(F)(F)F` [Example 4, (S)-4-[(R)-5-(1-Methanesulfonyl-1,2,3,6-tetrahydro-pyridin-4-yl)-2,3-dihydro-furo[2,3-c]pyridin-2-yl]-piperidine-1-carboxylic acid 2,2,2-trifluoro-1-methyl-ethyl ester], 5 nM.
The same measure for `C[C@H](OC(=O)N1CCC([C@]2(C)Cc3cc(C4=CCN(S(C)(=O)=O)CC4)ncc3O2)CC1)C(F)(F)F` [Example 5, (S)-4-[(S)-5-(1-Methanesulfonyl-1,2,3,6-tetrahydro-pyridin-4-yl)-2-methyl-2,3-dihydro-furo[2,3-c]pyridin-2-yl]-piperidine-1-carboxylic acid 2,2,2-trifluoro-1-methyl-ethyl ester]: 109 nM.
The same measure for `C[C@@H](OC(=O)N1CCC([C@@]2(C)Cc3cc(C4=CCN(S(C)(=O)=O)CC4)ncc3O2)CC1)C(F)(F)F` [Example 6, (R)-4-[(R)-5-(1-Methanesulfonyl-1,2,3,6-tetrahydro-pyridin-4-yl)-2-methyl-2,3-dihydro-furo[2,3-c]pyridin-2-yl]-piperidine-1-carboxylic acid 2,2,2-trifluoro-1-methyl-ethyl ester]: 7 nM.
Consider `C[C@H](OC(=O)N1CCC([C@@]2(C)Cc3cc(C4=CCN(S(C)(=O)=O)CC4)ncc3O2)CC1)C(F)(F)F` [Example 7, (S)-4-[(R)-5-(1-Methanesulfonyl-1,2,3,6-tetrahydro-pyridin-4-yl)-2-methyl-2,3-dihydro-furo[2,3-c]pyridin-2-yl]-piperidine-1-carboxylic acid 2,2,2-trifluoro-1-methyl-ethyl ester], for which it took 3 nM to reach a half-maximal effect (EC50).
The same measure for `C[C@@H](OC(=O)N1CCC([C@@]2(C)Cc3cc(-c4ccc(S(C)(=O)=O)cc4)ncc3O2)CC1)C(F)(F)F` [Example 8, (R)-4-[(R)-5-(4-Methanesulfonyl-phenyl)-2-methyl-2,3-dihydro-furo[2,3-c]pyridin-2-yl]-piperidine-1-carboxylic acid 2,2,2-trifluoro-1-methyl-ethyl ester]: 4 nM; for `C[C@H](OC(=O)N1CCC([C@@]2(C)Cc3cc(-c4ccc(S(C)(=O)=O)cc4)ncc3O2)CC1)C(F)(F)F` [Example 9, (S)-4-[(R)-5-(4-Methanesulfonyl-phenyl)-2-methyl-2,3-dihydro-furo[2,3-c]pyridin-2-yl]-piperidine-1-carboxylic acid 2,2,2-trifluoro-1-methyl-ethyl ester]: 1 nM.
